Results as given in PubChem BioAssay (NCI).
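Briefly, cells in 96-well plates were exposed to five compound concentrations for 48 h, and endpoints were estimated by linear interpolation. TGI is the concentration that stops growth completely.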

What was measured:
Assay in all cases: inhibition of tumour cell growth, NCI panel, 48 h
[1] = system: A549 NSCLC
[2] = system: ACHN renal
[3] = system: CAKI-1 renal
[4] = system: COLO 205 colon
[5] = system: HCC-2998 colon
[6] = system: HCT-15 colon
[7] = system: HOP-62 NSCLC
[8] = system: K-562 leukemia
[9] = system: KM12 colon
[10] = system: M14 melanoma
[11] = system: MALME-3M melanoma
[12] = system: MOLT-4 leukemia
[13] = system: NCI-H522 lung
[14] = system: RXF 393 renal
[15] = system: SK-MEL-2 melanoma
[16] = system: SK-OV-3 ovarian
[17] = system: SR leukemia
[18] = system: SW-620 colon
[19] = system: UACC-257 melanoma
[20] = system: MDA-N

| SMILES | TGI [1] [µM] | TGI [2] [µM] | TGI [3] [µM] | TGI [4] [µM] | TGI [5] [µM] | TGI [6] [µM] | TGI [7] [µM] | TGI [8] [µM] | TGI [9] [µM] | TGI [10] [µM] | TGI [11] [µM] | TGI [12] [µM] | TGI [13] [µM] | TGI [14] [µM] | TGI [15] [µM] | TGI [16] [µM] | TGI [17] [µM] | TGI [18] [µM] | TGI [19] [µM] | TGI [20] [µM] |
| --- | --- | --- | --- | --- | --- | --- | --- | --- | --- | --- | --- | --- | --- | --- | --- | --- | --- | --- | --- | --- |
| OCC1C(O)C(O)[C@@H]2SCCN12 (some centres undefined) | > 100 | > 100 | > 100 | > 100 | > 100 | > 100 | > 100 | > 100 | > 100 | > 100 | > 100 | > 100 | > 100 | > 100 | > 100 | > 100 | > 100 | > 100 | > 100 | – |
| COc1ccc(C2Cc3cc(OC)c(OC)c(OC)c3C2=O)cc1 (centres undefined) | > 100 | > 100 | > 100 | > 100 | > 100 | > 100 | > 100 | > 100 | > 100 | > 100 | > 100 | > 100 | – | – | > 100 | > 100 | – | > 100 | > 100 | – |
| Cc1cc(=O)[nH]c(CNC(=O)c2cccc3ccccc23)n1 | > 100 | > 100 | > 100 | > 100 | > 100 | > 100 | > 100 | > 100 | – | > 100 | > 100 | > 100 | > 100 | > 100 | – | > 100 | > 100 | > 100 | > 100 | – |
| CCOP(=O)(OCC)/C(=C/c1ccccc1)CC(C)=O | > 100 | > 100 | > 100 | > 100 | > 100 | > 100 | > 100 | > 100 | > 100 | > 100 | > 100 | > 100 | – | > 100 | > 100 | > 100 | – | > 100 | > 100 | > 100 |
| O=C1CCCCC1C1(O)C(=O)Nc2cc(F)ccc21 (centres undefined) | > 100 | > 100 | > 100 | > 100 | > 100 | > 100 | > 100 | > 100 | > 100 | > 100 | > 100 | > 100 | > 100 | > 100 | > 100 | > 100 | – | > 100 | > 100 | – |
| O=S1(=O)COc2ccccc2-c2ncncc21 | > 100 | > 100 | > 100 | > 100 | > 100 | > 100 | > 100 | > 100 | > 100 | > 100 | > 100 | > 100 | > 100 | > 100 | – | > 100 | > 100 | > 100 | > 100 | – |
| O=C(CC(=O)C(=O)CC(=O)OCc1ccccc1)OCc1ccccc1 | > 100 | – | > 100 | > 100 | > 100 | > 100 | > 100 | > 100 | – | > 100 | > 100 | > 100 | > 100 | > 100 | > 100 | > 100 | > 100 | > 100 | – | – |
| Cc1cc(=O)cc2sc3cc(Cl)ccc3nc1-2 | 17.8 | 30.6 | 46.7 | 53.7 | 24.6 | 16 | 29.7 | 20.6 | 24.5 | 33.3 | 39.7 | > 60.8 | 7.65 | 30 | 23.5 | > 82.5 | 10.3 | 29.8 | 69.9 | – |
| CC(C)CC(=O)N1CCN(C(=O)CC(C)C)c2ccccc21 | > 100 | > 100 | – | > 100 | > 100 | – | > 100 | > 100 | > 100 | – | > 100 | > 100 | > 100 | > 100 | > 100 | > 100 | – | > 100 | > 100 | – |
| N#Cc1ccc(Nc2cnc3cc(N)ccc3n2)cc1 | > 100 | > 100 | > 100 | > 100 | > 100 | > 100 | > 100 | > 100 | > 100 | > 100 | > 100 | > 100 | > 100 | > 100 | > 100 | > 100 | > 100 | > 100 | > 100 | – |
| Fc1ccc(C2(CCCN3CCc4[nH]c5cc(F)ccc5c4C3)OCCO2)cc1 | 29 | 23.5 | – | 24.1 | 4.21 | 31 | 25.7 | 18.3 | 29.8 | 7.15 | 25.9 | 21.9 | – | 26.7 | – | 26.7 | 22 | 27.7 | 16.5 | – |
| CC(=O)N(/N=C\c1ccc([N+](=O)[O-])cc1)c1ccccc1 | > 100 | > 100 | > 100 | > 100 | > 100 | > 100 | > 100 | > 100 | > 100 | > 100 | > 100 | – | – | – | > 100 | > 100 | – | > 100 | > 100 | – |
| CC(=O)NC(ON1C(=O)COc2ccccc21)C(Cl)(Cl)Cl (centres undefined) | > 100 | > 100 | > 100 | > 100 | > 100 | > 100 | > 100 | > 100 | > 100 | > 100 | > 100 | > 100 | > 100 | – | > 100 | > 100 | > 100 | > 100 | > 100 | – |
| COC1=C(C)C(=O)C2C(C1=O)C(c1ccc(OC)c(OC)c1)[C@H]2C (some centres undefined) | > 100 | > 100 | > 100 | > 100 | > 100 | > 100 | > 100 | > 100 | > 100 | > 100 | > 100 | > 100 | > 100 | > 100 | > 100 | > 100 | > 100 | > 100 | – | – |
| CCCCCCCCCCCCCCCCc1c(C(=O)OC)[nH]c(=S)[nH]c1=O | > 50 | > 50 | > 50 | > 50 | > 50 | > 50 | > 50 | > 50 | > 50 | > 50 | > 50 | > 50 | > 50 | > 50 | > 50 | > 50 | 32 | > 50 | > 50 | – |
| Cc1ccc(/C=C/C(=O)c2sc(C(N)=S)nc2C)cc1 | > 100 | > 100 | > 100 | > 100 | > 100 | > 100 | > 100 | > 100 | > 100 | – | > 100 | > 100 | > 100 | > 100 | > 100 | > 100 | – | > 100 | > 100 | – |
| Nn1c(-c2ccccc2Nc2ccccc2-c2n[nH]c(=S)n2N)n[nH]c1=S | – | > 50 | – | > 50 | > 50 | > 50 | > 50 | > 50 | > 50 | > 50 | > 50 | > 50 | > 50 | > 50 | > 50 | – | > 50 | > 50 | > 50 | – |
| Cn1nc(-c2ccccc2)c(C(=O)/C=C/c2ccccc2)c(N2CCCCC2)c1=O | > 100 | > 100 | 60.1 | > 100 | – | > 100 | 42.8 | > 100 | – | > 100 | – | > 100 | > 100 | 73.1 | – | > 100 | – | > 100 | – | – |
| CSc1nc2nc(C)c(C)nc2c(=O)[nH]1 | > 100 | > 100 | > 100 | > 100 | > 100 | > 100 | > 100 | > 100 | > 100 | > 100 | > 100 | > 100 | > 100 | > 100 | > 100 | > 100 | > 100 | > 100 | > 100 | – |
| COc1ccc(NC(=O)CSc2nnc(Cc3ccccc3)o2)cc1 | > 100 | > 100 | > 100 | > 100 | > 100 | > 100 | > 100 | > 100 | > 100 | > 100 | > 100 | > 100 | > 100 | > 100 | > 100 | > 100 | – | > 100 | > 100 | – |
| COc1cc(/C=C2\N=C(c3ccccc3)N(c3nc4c(Cl)cc(Cl)cc4s3)C2=O)ccc1O | > 100 | 82.2 | > 100 | > 100 | 37.8 | > 100 | > 100 | > 100 | > 100 | > 100 | – | 43.3 | – | 49.1 | 55.1 | > 100 | 29.6 | > 100 | > 100 | – |
| Nc1ccccc1S(=O)c1ccccc1 (centres undefined) | > 100 | > 100 | > 1 | > 100 | > 100 | > 100 | > 100 | > 100 | > 100 | > 100 | > 100 | > 100 | > 100 | > 100 | > 100 | > 100 | – | > 100 | > 1 | – |
